# Reference: patent US10322191B2, “Targeted conjugates and particles and formulations thereof” (TARVEDA THERAPEUTICS, INC., priority 2014, dated 2019)
# Where two headings read alike, the source gives them in different places.
# Experiments:
# [1] = tested on: NCI-H524 (ATCC) human lung cancer cells; assay type: cell-based; conditions: for IC50: Table 15
# Method: Conjugates were assessed in an in vitro assay evaluating inhibition of cell proliferation. NCI-H524 (ATCC) human lung cancer cells were plated in 96 well, V-bottomed plates (Costar) at a concentration of 5,000 cells/well and 24 hours later were treated with compound for 2 hours and further incubated 70 hours. Compound starting dose was 20 μM and three-fold serial dilutions were done for a total of ten points. After 2 hours of treatment, cells were spun down, the drug containing media was removed, and fresh complete medium was added and used to resuspend the cells, which were spun again. After removal of the wash media, the cells were resuspended in complete medium, then transferred into white walled, flat bottomed 96 well plates. […] Proliferation was measured using CellTiter Glo reagent using the standard protocol (Promega) and a Glomax multi+detection system (Promega). Percent proliferation inhibition was calculated using the following formula: % inhibition=(control-treatment)/control*100. Control is defined as vehicle alone. IC50 curves were generated using the nonlinear regression analysis (four parameter) with GraphPad Prism 6.
# Conjugates of the present invention were assessed in an in vitro assay evaluating inhibition of cell proliferation. NCI-H524 (ATCC) human lung cancer cells were plated in 96 well, V-bottomed plates (Costar) at a concentration of 5,000 cells/well. 24 hours later, cells were treated with either conjugate for 2 hours and further incubated 70 hours, or for octreotide competition experiments, treated with 100 μM octreotide for 30 min, and then treated with conjugate for 2 hours, and further incubated for 70 hours. Conjugate starting dose was 20 μM and three fold serial dilutions were done for a total of ten points. After 2 hours of treatment, cells were spun down, the drug containing media was removed, and fresh complete medium was added and used to resuspend the cells, which were spun again. After removal of the wash media, the cells were resuspended in complete medium, then transferred into white walled, flat bottomed 96 well plates. […] Proliferation was measured using CellTiter Glo reagent using the standard protocol (Promega) and a Glomax multi+detection system (Promega). Percent proliferation inhibition was calculated using the following formula: % inhibition=(control-treatment)/control*100. Control is defined as vehicle alone. IC50 curves were generated using the nonlinear regression analysis (four parameter) with GraphPad Prism 6.
# Conjugates of the present invention were tested for their activity dependence on the somatostatin receptor. Active agent Z in the conjugate was selected from auristatin, carbazitaxel, DM1, doxorubicin, platinum, SN-38 and vinblastine. Active agent Z is connected to octreotide with various linkers. Proliferation IC50 values of the conjugates were measured. Proliferation IC50 values of the conjugates without octreotide competition were also measured. The ratio of IC50 with octreotide competition and IC50 without octreotide competition is an indicator of whether activity is at least partially dependent on bind to the somatostatin receptor.
# [2] = tested on: NCI-H69 SCLC (small cell lung cancer) tumors; experiment: H69 tumor DM-1 levels by LC/MS-MS; assay type: in vivo, mice; conditions: 24 hour time point; dosed at 1 mg/kg (conjugates, nanoparticles) or 0.4 mg/kg for DM-1
# Method: To examine the ability of conjugates of the present invention to accumulate in tumors, a murine cancer model was used. All mice were treated in accordance with the OLAW Public Health Service Policy on Human Care and Use of Laboratory Animals and the ILAR Guide for the Care and Use of Laboratory Animals. All in vivo studies were conducted following the protocols approved by the Blend Therapeutics Institutional Animal Care and Use Committee. Animals were inoculated with 2.5×10{circumflex over (0)}6 NCI-H69 SCLC (small cell lung cancer) cells in 1:1 RPMI 1640 (Invitrogen, Carlsbad, Calif.)/Matrigel® (BD Biosciences, San Jose, Calif.) via subcutaneous injection to the right flank. Tumors were allowed to reach an approximate volume of ˜500 mm3. Animals were then randomized into treatment groups of 3 animals per time point and were dosed at 1 mg/kg (10% propylene glycol in water for injection for free conjugates, or 10% sucrose for nanoparticles), or 0.4 mg/kg for DM-1 (10% propylene glycol in water for injection). The 24 hour time point was used as a benchmark across conjugates.
# Tumor DM-1 levels were determined by liquid chromatography mass spectrometry (LC/MS-MS). Four volumes of 5 mM 6-maleimidohexanoic acid to 1 part tumor v/w was added and homogenized for about 10-15 seconds with a handheld homogenizer. 10 μL of 500 mM Tris(2-carboxyethyl)phosphine was added to 100 uL of tumor homogenate, mixed well and incubated at room temperature for about 5-15 min. 200-300 uL of acetonitrile was used to precipitate proteins in tumor homogenate, samples were centrifuged for 5 min, and supernatant was injected onto LC/MS-MS system for DM-1 analysis.
# [3] = treated 2 hours, further incubated 70 hours, read-out: H524 IC50
# [4] = read-out: H524 IC50+ 100 uM octreotide, 100 μM octreotide for 30 min, then conjugate 2 hours, 70 hours incubation
Structure (SMILES),"IC50 [1, 3] [µM]","IC50 [1, 4] [µM]",H69 tumor DM-1 levels [2] [nM],effect on cell proliferation ([1]; octreotide alone)
COc1cc2cc(c1Cl)N(C)C(=O)C[C@H](OC(=O)[C@H](C)N(C)C(=O)CCSSCCNC(=O)CC[C@H]1C(=O)N[C@@H](Cc3ccc(O)cc3)C(=O)N[C@H](Cc3c[nH]c4ccccc34)C(=O)N[C@@H](CCCCN)C(=O)N[C@@H]([C@@H](C)O)C(=O)N[C@@H](Cc3ccccc3)C(=O)N1C)[C@]1(C)O[C@H]1[C@H](C)[C@@H]1C[C@@](O)(NC(=O)O1)[C@H](OC)/C=C/C=C(\C)C2 [Conjugate 14],0.298,0.877,70.1,
COc1cc2cc(c1Cl)N(C)C(=O)C[C@H](OC(=O)[C@H](C)N(C)C(=O)CCSSC[C@H](NC(=O)CC[C@H]1C(=O)N[C@@H](Cc3ccc(O)cc3)C(=O)N[C@H](Cc3c[nH]c4ccccc34)C(=O)N[C@@H](CCCCN)C(=O)N[C@@H]([C@@H](C)O)C(=O)N[C@@H](Cc3ccccc3)C(=O)N1C)C(=O)NC(C)(C)CC(C)(C)C)[C@]1(C)O[C@H]1[C@H](C)[C@@H]1C[C@@](O)(NC(=O)O1)[C@H](OC)/C=C/C=C(\C)C2 [Conjugate 16],0.223,0.398,96.4,
COc1cc2cc(c1Cl)N(C)C(=O)C[C@H](OC(=O)[C@H](C)N(C)C(=O)CCSSCCC(=O)NCCCOCCOCCOCCCNC(=O)CC[C@H]1C(=O)N[C@@H](Cc3ccc(O)cc3)C(=O)N[C@H](Cc3c[nH]c4ccccc34)C(=O)N[C@@H](CCCCN)C(=O)N[C@@H]([C@@H](C)O)C(=O)N[C@@H](Cc3ccccc3)C(=O)N1C)[C@]1(C)O[C@H]1[C@H](C)[C@@H]1C[C@@](O)(NC(=O)O1)[C@H](OC)/C=C/C=C(\C)C2 [Conjugate 18],1.48,2.16,86.3,
CCCCN(CCSSCCC(=O)N(C)[C@@H](C)C(=O)O[C@H]1CC(=O)N(C)c2cc(cc(OC)c2Cl)C/C(C)=C/C=C/[C@@H](OC)[C@@]2(O)C[C@H](OC(=O)N2)[C@@H](C)[C@@H]2O[C@@]12C)C(=O)CC[C@H]1C(=O)N[C@@H](Cc2ccc(O)cc2)C(=O)N[C@H](Cc2c[nH]c3ccccc23)C(=O)N[C@@H](CCCCN)C(=O)N[C@@H]([C@@H](C)O)C(=O)N[C@@H](Cc2ccccc2)C(=O)N1C [Conjugate 22],0.332,0.741,145,
COc1cc2cc(c1Cl)N(C)C(=O)C[C@H](OC(=O)[C@H](C)N(C)C(=O)CCSSCCNC(=O)[C@@H](NC(=O)[C@@H]1CSSC[C@H](NC(=O)[C@H](N)Cc3ccccc3)C(=O)N[C@@H](Cc3ccc(O)cc3)C(=O)N[C@H](Cc3c[nH]c4ccccc34)C(=O)N[C@@H](CCCCN)C(=O)N[C@@H]([C@@H](C)O)C(=O)N1)[C@@H](C)O)[C@]1(C)O[C@H]1[C@H](C)[C@@H]1C[C@@](O)(NC(=O)O1)[C@H](OC)/C=C/C=C(\C)C2 [Conjugate 35],0.253,1,23.2,
CCCCCCCCN[C@H](Cc1ccccc1)C(=O)N[C@H]1CSSC[C@@H](C(=O)N[C@H](C(=O)NCCSSCCC(=O)N(C)[C@@H](C)C(=O)O[C@H]2CC(=O)N(C)c3cc(cc(OC)c3Cl)C/C(C)=C/C=C/[C@@H](OC)[C@@]3(O)C[C@H](OC(=O)N3)[C@@H](C)[C@@H]3O[C@@]23C)[C@@H](C)O)NC(=O)[C@H]([C@@H](C)O)NC(=O)[C@H](CCCCN)NC(=O)[C@@H](Cc2c[nH]c3ccccc23)NC(=O)[C@H](Cc2ccc(O)cc2)NC1=O [Conjugate 55],0.047,0.395,95.3,
COc1cc2cc(c1Cl)N(C)C(=O)C[C@H](OC(=O)[C@H](C)N(C)C(=O)CCSSC[C@H](NC(=O)[C@@H]1CSSC[C@H](NC(=O)[C@H](N)Cc3ccccc3)C(=O)N[C@@H](Cc3ccc(O)cc3)C(=O)N[C@H](Cc3c[nH]c4ccccc34)C(=O)N[C@@H](CCCCN)C(=O)N[C@@H]([C@@H](C)O)C(=O)N1)C(N)=O)[C@]1(C)O[C@H]1[C@H](C)[C@@H]1C[C@@](O)(NC(=O)O1)[C@H](OC)/C=C/C=C(\C)C2 [Conjugate 57],0.136,1.65,243,
COc1cc2cc(c1Cl)N(C)C(=O)C[C@H](OC(=O)[C@H](C)N(C)C(=O)CCSSCCCN[C@H](Cc1ccccc1)C(=O)N[C@H]1CSSC[C@@H](C(=O)N[C@H](C(=O)O)[C@@H](C)O)NC(=O)[C@H]([C@@H](C)O)NC(=O)[C@H](CCCCN)NC(=O)[C@@H](Cc3c[nH]c4ccccc34)NC(=O)[C@H](Cc3ccc(O)cc3)NC1=O)[C@]1(C)O[C@H]1[C@H](C)[C@@H]1C[C@@](O)(NC(=O)O1)[C@H](OC)/C=C/C=C(\C)C2 [Conjugate 80],0.152,0.157,91.2,
CCCCCCCCCCC(CCN[C@H](Cc1ccccc1)C(=O)N[C@H]1CSSC[C@@H](C(=O)N[C@@H](CO)[C@@H](C)O)NC(=O)[C@H]([C@@H](C)O)NC(=O)[C@H](CCCCN)NC(=O)[C@@H](Cc2c[nH]c3ccccc23)NC(=O)[C@H](Cc2ccccc2)NC1=O)SSCCC(=O)N(C)[C@@H](C)C(=O)O[C@H]1CC(=O)N(C)c2cc(cc(OC)c2Cl)C/C(C)=C/C=C/[C@@H](OC)[C@@]2(O)C[C@H](OC(=O)N2)[C@@H](C)[C@@H]2O[C@@]12C (stereo partly drawn) [Conjugate 106],0.4,0.666,,
COc1cc2cc(c1Cl)N(C)C(=O)C[C@H](OC(=O)[C@H](C)N(C)C(=O)CCSC1CC(=O)N(CC(=O)N[C@H](Cc3ccccc3)C(=O)N[C@H]3CSSC[C@@H](C(=O)N[C@H](CO)[C@@H](C)O)NC(=O)[C@H]([C@@H](C)O)NC(=O)[C@H](CCCCN)NC(=O)[C@@H](Cc4c[nH]c5ccccc45)NC(=O)[C@H](Cc4ccccc4)NC3=O)C1=O)[C@]1(C)O[C@H]1[C@H](C)[C@@H]1C[C@@](O)(NC(=O)O1)[C@H](OC)/C=C/C=C(\C)C2 (stereo partly drawn) [Conjugate 108],0.096,1.28,,
COc1cc2cc(c1Cl)N(C)C(=O)C[C@H](OC(=O)[C@H](C)N(C)C(=O)CCSSCCC(=O)NCCCC[C@@H](N)C(=O)N[C@H]1CSSC[C@@H](C(=O)N[C@H](C(=O)O)[C@@H](C)O)NC(=O)[C@H]([C@@H](C)O)NC(=O)[C@H](CCCCN)NC(=O)[C@@H](Cc3c[nH]c4ccccc34)NC(=O)[C@H](Cc3ccc(O)cc3)NC1=O)[C@]1(C)O[C@H]1[C@H](C)[C@@H]1C[C@@](O)(NC(=O)O1)[C@H](OC)/C=C/C=C(\C)C2 [Conjugate 113],1.08,4.92,,
COc1cc2cc(c1Cl)N(C)C(=O)C[C@H](OC(=O)[C@H](C)N(C)C(=O)CCSSC[C@@H](N)C(=O)N[C@H]1CSSC[C@@H](C(=O)N[C@H](C(=O)O)[C@@H](C)O)NC(=O)[C@H]([C@@H](C)O)NC(=O)[C@H](CCCCN)NC(=O)[C@@H](Cc3c[nH]c4ccccc34)NC(=O)[C@H](Cc3ccc(O)cc3)NC1=O)[C@]1(C)O[C@H]1[C@H](C)[C@@H]1C[C@@](O)(NC(=O)O1)[C@H](OC)/C=C/C=C(\C)C2 [Conjugate 119],2.66,> 5,,
"C[C@@H](O)[C@@H]1NC(=O)[C@H](CCCCN)NC(=O)[C@@H](Cc2c[nH]c3ccccc23)NC(=O)[C@H](Cc2ccccc2)NC(=O)[C@@H](NC(=O)[C@H](N)Cc2ccccc2)CSSC[C@@H](C(=O)N[C@H](CO)[C@@H](C)O)NC1=O [Octreotide, octreotide, reference compound]",,,,no significant effect
